{
  "source": "paper PMC5100701",
  "about": "(Bioconjugate chemistry, 2016)",
  "key": {"human MMP-12 [1]": {"biological_target": "T1, human MMP-12 (Homo sapiens, UniProt P39900)", "T1 sequence (P39900 106-470)": "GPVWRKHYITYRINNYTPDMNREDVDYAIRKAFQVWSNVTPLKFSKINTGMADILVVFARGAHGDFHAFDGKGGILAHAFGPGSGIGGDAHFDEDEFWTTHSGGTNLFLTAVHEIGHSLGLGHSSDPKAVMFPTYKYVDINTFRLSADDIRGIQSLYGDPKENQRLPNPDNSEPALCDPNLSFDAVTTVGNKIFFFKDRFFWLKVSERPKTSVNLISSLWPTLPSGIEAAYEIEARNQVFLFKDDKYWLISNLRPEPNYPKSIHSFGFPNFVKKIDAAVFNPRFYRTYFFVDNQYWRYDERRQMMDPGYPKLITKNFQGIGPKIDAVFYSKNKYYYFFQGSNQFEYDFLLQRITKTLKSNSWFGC", "test": "in vitro binding", "type": "biochemical", "conditions": "read-out: Ki (nM)/hMMP12; 50 mM Tris/HCl buffer, pH 6.8, 10 mM CaCl2, 25 °C; mean ± SD of three experiments"}, "human MMP-12 [2]": {"biological_target": "T1, human MMP-12", "test": "ability to block MMP-12 activity in presence of human serum albumin", "type": "biochemical", "conditions": "hSA 5 μM"}, "human MMP-12 [3]": {"biological_target": "T1, human MMP-12", "conditions": "read-out: Ki toward human MMP-12; cited from earlier work"}, "atherosclerotic plaque": {"test_system": "atherosclerotic plaque", "conditions": "mouse model of atherosclerosis; cited from earlier work"}, "[4]": {"test": "blood clearance after intravenous injection in mice", "type": "in vivo", "conditions": "C57BL/6 mice, 1 nmol injected, n=3, 4h post-injection"}, "[5]": {"test": "biodistribution: tissue fluorescence in harvested organs", "type": "in vivo, C57BL/6 mice", "conditions": "organs harvested 4h post-injection, 1 nmol injected"}, "[6]": {"test": "LC/MS analysis of mouse urine", "type": "in vivo, C57BL/6 mice", "conditions": "mouse urine 4h after injection"}},
  "note": "Where two headings read alike, the source gives them in different places.",
  "data": [
    {"smiles": "NC(=O)[C@H](CCC(=O)O)NC(=O)[C@H](CCC(=O)O)NC(=O)[C@H](Cc1cc(-c2ccc(-c3cccc(Cl)c3)cc2)no1)CP(=O)(O)c1ccc(Br)cc1", "note": "[RXP470.1, reference compound]", "values": [
      {"measurement": "Ki", "setting": "human MMP-12 [1]", "result": "0.26 ± 0.05", "unit": "nM"},
      {"measurement": "shift of Ki in presence of human serum albumin", "setting": "human MMP-12 [2]", "result": 8.5, "unit": "fold"},
      {"measurement": "Ki", "setting": "human MMP-12 [3]", "result": 0.26, "unit": "nM"},
      {"measurement": "effect on atherosclerotic plaque", "setting": "atherosclerotic plaque", "result": "inhibit atherosclerotic plaque growth"}
    ]},
    {"smiles": "CC[N+]1=C(C=CC=CC=C2N(CCCCCC(=O)NCCOCCOCCNC(=O)[C@H](CCC(=O)O)NC(=O)[C@H](CCC(=O)O)NC(=O)[C@H](Cc3cc(-c4ccc(-c5cccc(Cl)c5)cc4)no3)CP(=O)(O)c3ccc(Br)cc3)c3ccc4c(S(=O)(=O)O)cc(S(=O)(=O)[O-])cc4c3C2(C)C)C(C)(C)c2c1ccc1c(S(=O)(=O)O)cc(S(=O)(=O)O)cc21", "note": "[probe 1]", "values": [
      {"measurement": "shift of Ki in presence of human serum albumin", "setting": "human MMP-12 [2]", "result": 88, "unit": "fold"},
      {"measurement": "percentage of injected dose remaining in the bloodstream 4h post-injection", "setting": "[4]", "result": "25.1±2.9", "unit": "%ID"},
      {"measurement": "tissue fluorescence in liver, spleen, kidneys and lungs", "setting": "[5]", "result": "higher fluorescence signals in the kidneys relative to the liver"}
    ]},
    {"smiles": "CC1(C)C(=CC=C2CCCC(C=CC3=[N+](CCCCCC(=O)NCCOCCOCCNC(=O)[C@H](CCC(=O)O)NC(=O)[C@H](CCC(=O)O)NC(=O)[C@H](Cc4cc(-c5ccc(-c6cccc(Cl)c6)cc5)no4)CP(=O)(O)c4ccc(Br)cc4)c4ccc(S(=O)(=O)O)cc4C3(C)C)=C2Oc2ccc(S(=O)(=O)O)cc2)N(CCCCS(=O)(=O)O)c2ccc(S(=O)(=O)[O-])cc21", "note": "[probe 4]", "values": [
      {"measurement": "conversion into a second metabolite in urine", "setting": "[6]", "result": "about 50%"},
      {"measurement": "tissue fluorescence in liver, spleen, kidneys and lungs", "setting": "[5]", "result": "cleared by the kidneys, but its uptake by the liver is not negligible"}
    ]}
  ]
}
